Experimental data taken from PMC6756013, “B591, a novel specific pan-PI3K inhibitor, preferentially targets cancer stem cells” (Oncogene, 2019).

Key:
[1] = system: phosphorylation of Akt and ERK in RD cells; assay: Immunoblotting of feedback activation of Akt and ERK; type: cell-based, human; settings: up to 24 h, B591 10 μM
Procedure: Fig. 2 B591 inhibits PI3K/Akt pathway in multiple cancer cell lines. a Representative images of Akt1 redistribution in IGF-1-treated cells in the absence or presence of B591. Scale bar represents 10 μm. Arrows indicate IGF-1-mediated membrane translocation detected by the image analysis algorithm. b Inhibition of mTORC1 and mTORC2 signaling in multiple cancer cell lines, exposed for 5 h to increasing concentrations of B591. c HepG2 cells were treated with DMSO or 20 μM of B591 for 5 h. Immunofluorescence (red) intensity reflects eIF4E subcellular distribution. Cells were visualized with high content reader. Representative images are shown, and scale bar represents 50 μm. d Nuclear-to-cytoplasmic ratio of eIF4E in five cancer cell lines was determined via high content reader. e The phosphorylation of AKT and ERK was determined by immunoblotting in RD cells in the presence of 10 μM of B591 after indicated time of exposure. f Inhibition of the phosphorylation of AKT and ERK in RD cells treated with B591, PI-103 or Rapamycin for 24 h was determined by immunoblotting
Despite a significant efficacy in preclinical models, the clinical tumor response to mTORC1 inhibitors, such as rapalogs, is modest. […]

[2] = system: MDA-MB-231 and SUM-159PT monolayer and mammosphere cells; assay: Proliferation inhibition of monolayer versus mammosphere cells; type: cell-based, human
Procedure: The proliferation inhibitory activities of B591 were compared between monolayer and mammosphere cells.
Cells were treated with indicated agents for 48 h, and cells were harvested and processed for apoptosis assay using the PE-Annexin V/7-AAD Apoptosis Detection Kit. d Representative flow cytometry plots of apoptosis inducing activity of B591 (10 μM) and paclitaxel (10 nM) on monolayer and mammosphere MDA-MB-231 cells. e B591 preferentially targeted CD44^high/CD24^low cells. Cells were treated with B591 or paclitaxel for 2 days. Following a 4-day recovery period, cells were co-stained with CD44 and CD24 antibodies and subjected to FACS analysis. Representative flow cytometry plots show the effect of B591 on CD44^high/CD24^low population in MDA-MB-231 cells in vitro. f B591 decreased mammosphere forming efficiency. Primary MDA-MB-231 mammospheres were treated with B591 or paclitaxel for 48 h. Results of the secondary mammosphere-formation assay are shown. Scale bar represents 40 μm. g B591 decreased the expression of CSC markers in MDA-MB-231 cells. Cells were treated with B591 or paclitaxel for 2 days. […] They label a gated population in plots with axes CD44 and CD24. / Panel E: DMSO is the vehicle control. Its printed value is included all the same.

[3] = system: CD44high/CD24low population in mammospheres from SUM-159PT cells; assay: CSCs phenotype assay (CD44/CD24 flow cytometry); type: cell-based; settings: 4 µM
Procedure: Cells were treated with B591 for 24 h, then the cell suspension was incubated with 20 μl of CD44-APC (#559942, BD Pharmingen, Franklin Lakes, NJ, USA) and 20 μl of CD24-PE (#555428, BD Pharmingen) antibodies for 30 min in dark at 4 ℃. Phenotype was detected by BD FACSCalibur, and data was analyzed with Flowjo. ALDH activity was analyzed with ALDEFLUOR Kit (STEMCELL Technologies, Vancouver, BC, Canada) according to the manufacture’s protocol.

[4] = system: lung metastasis of 4T1 cells; assay: Breast cancer metastasis study; type: in vivo, NOD/SCID mice; settings: 8 mg/kg intraperitoneally once a day
Procedure: Studies implicated that the process termed EMT is associated with features of CSCs, which are considered to be involved in metastasis, a major cause of cancer-associated deaths. 4T1 murine mammary carcinoma cells spontaneously produce highly metastatic tumors that can metastasize to the lung, liver, lymph nodes, and brain while the primary tumor is growing in situ. To determine the efficacy of B591 on tumor metastasis, the metastasis model was established by incubating 4T1 cells into the mammary gland of NOD/SCID mice and treated with 8 mg/kg of B591 intraperitoneally once a day. B591 decreased more than 50% of the metastatic tumors in the lung which spontaneously metastasize from the primary tumor in the mammary gland (Fig. 6a).
To establish the metastasis model, 3 × 10^5 of 4T1 cells were incubated into the mammary fat pad of NOD/SCID mice. When tumor volume reached about 50 mm^3, mice were randomly divided into two groups for treatment with 8 mg/kg of B591 or vehicle (i.p.) for 2 months. The metastatic tumors in lung were stained with ink as previously reported.

[5] = system: SUM-159PT orthotopic xenografts; assay: Tumor recurrence study in SUM-159PT xenografts; type: in vivo, NOD/SCID mice; settings: B591 10 mg/kg
Procedure: Fig. 6 B591 reduces breast tumor metastasis and recurrence. a Representative images show the effect of B591 (8 mg/kg) on lung metastasis of 4T1 cells, and data from six mice were plotted. b SUM-159PT cells were respectively treated with the indicated agents (8 nM Paclitaxel, 8 nM Paclitaxel plus 5 μM B591) for 24 h, the cells were then cultured for mammospheres. Representative images were shown, and data from two independent experiments were plotted. c–f SUM-159PT xenografts (n = 7) were treated with 4 mg/kg Paclitaxel, or 10 mg/kg B591, or both for 2 weeks, then ended the treatment and waited for tumor recurrence. Tumor volume (c) and body weight (d) were measured every 2 days after treatment, and tumors were photographed (e) and weighted (f) at the end of the experiment. ^*p < 0.05, ^**p < 0.01 versus indicated groups
In the tumor recurrence study, orthotopic xenografts were established with 5 × 10^6 SUM-159PT cells. When tumor volume reached about 50 mm^3, mice were randomly divided into four groups for treatment with vehicle, 4 mg/kg Paclitaxel, 10 mg/kg B591, and combination of 4 mg/kg Paclitaxel plus 10 mg/kg B591 (i.p.). Treatment was stopped after 2 weeks, and the tumors were allowed for recurrence for 3 weeks. Tumor volume and the body weight of mice were measured during the experiments. In the end of treatment, the mice were killed, and the tumor tissues were dissected and weighted.

**Q.** How did the “Phosphorylation of Akt and ERK” value [1] turn out when Cc1cc2c(cc1C)[n+](Cc1ccccc1Br)cn2Cc1ccc2c(c1)CCO2.[Br-] [B591, 3-(2-bromobenzyl)-1-((2,3-dihydrobenzofuran-5-yl)methyl) -5,6-dimethyl-1H-benzo[d]imidazol-3-ium bromide] was run?
**A.** effectively suppressed the phosphorylation of Akt and ERK over the whole time course of 24 h

**Q.** And the “Proliferation inhibitory activity, mammosphere versus monolayer cells” value [2]?
**A.** more potent against mammosphere cells

**Q.** And the “Decrease of CD44high/CD24low population” value [3]?
**A.** 82%

**Q.** And the “Decrease of metastatic tumors in the lung” value [4]?
**A.** more than 50%

**Q.** What about the Body weight ([5]; with or without paclitaxel 4 mg/kg) of the same molecule?
**A.** no significant body weight loss

**Q.** And the “Tumor growth and regrowth after end of treatment” value ([5]; paclitaxel 4 mg/kg, i.p., 2 weeks, then 3 weeks recurrence)?
**A.** significant inhibition of tumor growth and notably delayed the relapse of breast cancer following cessation of paclitaxel treatment
